Measurements from US20200339691A1, “PROTEINACEOUS MOLECULES AND USES THEREFOR” (priority 2018, published 2020).
Where a SMILES comes first, the peptide text is derived from it. The star is where a group is joined. Myristoyl = CCCCCCCCCCCCCC(=O)*

Columns and labels:
[1] = system: CD44^hiCD24^lo CSCs in MDA-MB-231 cells; assay: FACS analysis of CD44^hiCD24^lo cancer stem cells in MDA-MB-231 cells treated with P1 analogues; type: cell-based, human; details: 50 μM peptide, 48 hours; for CD44^hiCD24^lo CSCs (%) / COI, Live Single CD44^hiCD24^lo CSCs (Cell Count): n = 1; for Average Inhibition of CSCs (%) / CD44^hiCD24^lo CSCs (%) Repeat 1 / CD44^hiCD24^lo CSCs (%) Repeat 2 / CD44^hiCD24^lo CSCs (%) Repeat 3: n = 3
Description: Analogues of P1 (Table 6) were designed and synthesized in accordance with the procedure of Example 5. The ability of these analogues to inhibit cancer stem cells was determined using FACS analysis on MDA-MB-231 cells, which constitutively contain approximately 90% CD44^hiCD24^lo cancer stem cells, treated with the peptides.
(§1) Non-adherent cells were removed during the washing steps.

[2] = system: MDA-MB-231 cells; type: cell-based, human; details: 50 μM peptide, 48 hours, n = 1;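 for COI, Live Single Cells (Cell Count): live means Hoechst-negative events among single cells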
Excerpt: as §1

Q: `CCCCCCCCCCCCCC(=O)N[C@@H](CC(C)C)C(=O)N[C@@H](CC(C)C)C(=O)N[C@@H](Cc1ccccc1)C(=O)N[C@H](C(=O)N[C@@H](Cc1ccccc1)C(=O)N[C@@H](CCCNC(=N)N)C(=O)N[C@@H](CC(C)C)C(=O)N[C@@H](CCCNC(=N)N)C(=O)N[C@@H](CCCCN)C(=O)NCC(=O)N[C@@H](CCCNC(=N)N)C(=O)N[C@@H](CCSC)C(=O)N[C@@H](CCSC)C(=O)N[C@@H](CC(=O)O)C(=O)N[C@H](C(=O)N[C@@H](CCCCN)C(=O)N[C@@H](CCCCN)C(N)=O)C(C)C)[C@@H](C)CC` [Peptide 2853806, Myristoyl-LLFIFRLRKGRMMDVKK-NH2] (Myristoyl-LLFIFRLRKGRMMDVKK-NH2) was tested. Which “Inhibition of CSCs (%) Repeat 1” value [1] did it give?
A: 4.36%

Q: And the “Inhibition of CSCs (%) Repeat 2” value [1]?
A: 9.44%

Q: And the “Inhibition of CSCs (%) Repeat 3” value [1]?
A: 10.85%

Q: What about the “CD44^hiCD24^lo CSCs (%)” value [1] of the same compound?
A: 91.86%

Q: And the “COI, Live Single CD44^hiCD24^lo CSCs (Cell Count)” value [1]?
A: 3361

Q: And the “Average Inhibition of CSCs (%)” value [1]?
A: 8.22%

Q: What about the “CD44^hiCD24^lo CSCs (%) Repeat 1” value [1] of the same compound?
A: 85.71%

Q: What about the “CD44^hiCD24^lo CSCs (%) Repeat 2” value [1] of the same compound?
A: 81.25%

Q: What about the “CD44^hiCD24^lo CSCs (%) Repeat 3” value [1] of the same compound?
A: 80.00%

Q: What about the “COI (Cell Count)” value [2] of the same compound?
A: 3997

Q: What about the “COI, Live Single Cells (Cell Count)” value [2] of the same compound?
A: 3659

Q: What about the “COI, Single (Cell Count)” value [2] of the same compound?
A: 3696

Q: What about the “Total Cell Count” value [2] of the same compound?
A: 4893

Q: Which “Inhibition of CSCs (%) Repeat 1” value [1] does the source give for `CCCCCCCCCCCCCC(=O)N[C@@H](CC(C)C)C(=O)N[C@H](C(=O)N[C@@H](Cc1ccccc1)C(=O)N[C@H](C(=O)N[C@@H](Cc1ccccc1)C(=O)N[C@@H](CCCNC(=N)N)C(=O)N[C@@H](CC(C)C)C(=O)N[C@@H](CCCNC(=N)N)C(=O)N[C@@H](CCCCN)C(=O)NCC(=O)N[C@@H](CCCNC(=N)N)C(=O)N[C@@H](CCSC)C(=O)N[C@@H](CCSC)C(=O)N[C@@H](CC(=O)O)C(=O)N[C@@H](CCC(=O)O)C(=O)N[C@@H](CCCCN)C(=O)N[C@@H](CCCCN)C(N)=O)[C@@H](C)CC)[C@@H](C)O` [Peptide 2853838, Myristoyl-LTFIFRLRKGRMMDEKK-NH2] (Myristoyl-LTFIFRLRKGRMMDEKK-NH2) here?
A: 86.55%

Q: And the “Inhibition of CSCs (%) Repeat 2” value [1]?
A: 81.44%

Q: What about the “Inhibition of CSCs (%) Repeat 3” value [1] of the same compound?
A: 86.40%

Q: What about the “CD44^hiCD24^lo CSCs (%)” value [1] of the same compound?
A: 10.16%

Q: What about the “COI, Live Single CD44^hiCD24^lo CSCs (Cell Count)” value [1] of the same compound?
A: 31

Q: What about the “Average Inhibition of CSCs (%)” value [1] of the same compound?
A: 84.80%

Q: What about the “CD44^hiCD24^lo CSCs (%) Repeat 1” value [1] of the same compound?
A: 12.05%

Q: And the “CD44^hiCD24^lo CSCs (%) Repeat 2” value [1]?
A: 16.65%

Q: What about the “CD44^hiCD24^lo CSCs (%) Repeat 3” value [1] of the same compound?
A: 12.20%

Q: What about the “COI (Cell Count)” value [2] of the same compound?
A: 408

Q: What about the “COI, Live Single Cells (Cell Count)” value [2] of the same compound?
A: 305

Q: And the “COI, Single (Cell Count)” value [2]?
A: 333

Q: And the “Total Cell Count” value [2]?
A: 888

Q: For `CCCCCCCCCCCCCC(=O)N[C@@H](CC(C)C)C(=O)N[C@H](C(=O)N[C@@H](Cc1ccccc1)C(=O)N[C@H](C(=O)N[C@@H](Cc1ccccc1)C(=O)N[C@@H](CCCNC(=N)N)C(=O)N[C@@H](CC(C)C)C(=O)N[C@@H](CCCNC(=N)N)C(=O)N[C@@H](CCCCN)C(=O)NCC(=O)N[C@@H](CCCNC(=N)N)C(=O)N[C@@H](CCSC)C(=O)N[C@@H](CCSC)C(=O)N[C@@H](CC(=O)O)C(=O)N[C@H](C(=O)N[C@@H](CC(C)C)C(=O)N[C@@H](CCCCN)C(N)=O)C(C)C)[C@@H](C)CC)[C@@H](C)O` [Peptide 2853842, Myristoyl-LTFIFRLRKGRMMDVLK-NH2] (Myristoyl-LTFIFRLRKGRMMDVLK-NH2), which “Inhibition of CSCs (%) Repeat 1” value [1] is on record?
A: 76.16%

Q: What about the “Inhibition of CSCs (%) Repeat 2” value [1] of the same compound?
A: 78.88%

Q: And the “Inhibition of CSCs (%) Repeat 3” value [1]?
A: 81.46%

Q: What about the “CD44^hiCD24^lo CSCs (%)” value [1] of the same compound?
A: 12.39%

Q: And the “COI, Live Single CD44^hiCD24^lo CSCs (Cell Count)” value [1]?
A: 27

Q: And the “Average Inhibition of CSCs (%)” value [1]?
A: 78.83%

Q: What about the “CD44^hiCD24^lo CSCs (%) Repeat 1” value [1] of the same compound?
A: 21.37%

Q: And the “CD44^hiCD24^lo CSCs (%) Repeat 2” value [1]?
A: 18.95%

Q: And the “CD44^hiCD24^lo CSCs (%) Repeat 3” value [1]?
A: 16.64%

Q: And the “COI (Cell Count)” value [2]?
A: 325

Q: What about the “COI, Live Single Cells (Cell Count)” value [2] of the same compound?
A: 218

Q: What about the “COI, Single (Cell Count)” value [2] of the same compound?
A: 249

Q: And the “Total Cell Count” value [2]?
A: 3873

Q: For `CCCCCCCCCCCCCC(=O)N[C@@H](CC(C)C)C(=O)N[C@H](C(=O)N[C@@H](Cc1ccccc1)C(=O)N[C@H](C(=O)N[C@@H](Cc1ccccc1)C(=O)N[C@@H](CCCNC(=N)N)C(=O)N[C@@H](CC(C)C)C(=O)N[C@@H](CCCNC(=N)N)C(=O)N[C@@H](CCCCN)C(=O)NCC(=O)N[C@@H](CCCNC(=N)N)C(=O)N[C@@H](CCSC)C(=O)N[C@@H](CCSC)C(=O)N[C@@H](CC(=O)O)C(=O)N[C@H](C(=O)N[C@@H](CCCCN)C(=O)N[C@@H](CC(C)C)C(N)=O)C(C)C)[C@@H](C)CC)[C@@H](C)O` [Peptide 2853846, Myristoyl-LTFIFRLRKGRMMDVKL-NH2] (Myristoyl-LTFIFRLRKGRMMDVKL-NH2), which “Inhibition of CSCs (%) Repeat 1” value [1] is on record?
A: 61.79%

Q: And the “Inhibition of CSCs (%) Repeat 2” value [1]?
A: 63.60%

Q: And the “Inhibition of CSCs (%) Repeat 3” value [1]?
A: 62.39%

Q: And the “CD44^hiCD24^lo CSCs (%)” value [1]?
A: 27.88%

Q: And the “COI, Live Single CD44^hiCD24^lo CSCs (Cell Count)” value [1]?
A: 87

Q: And the “Average Inhibition of CSCs (%)” value [1]?
A: 62.59%

Q: And the “CD44^hiCD24^lo CSCs (%) Repeat 1” value [1]?
A: 34.25%

Q: What about the “CD44^hiCD24^lo CSCs (%) Repeat 2” value [1] of the same compound?
A: 32.66%

Q: And the “CD44^hiCD24^lo CSCs (%) Repeat 3” value [1]?
A: 33.75%

Q: And the “COI (Cell Count)” value [2]?
A: 370

Q: What about the “COI, Live Single Cells (Cell Count)” value [2] of the same compound?
A: 312

Q: What about the “COI, Single (Cell Count)” value [2] of the same compound?
A: 330

Q: What about the “Total Cell Count” value [2] of the same compound?
A: 10000
